Data published in the NIST ThermoML archive (doi:10.1016/j.jct.2013.08.034).
Numbers after ± are expanded uncertainties.

Test: xn = mol fraction of the nth substance listed
Details: 101 kPa, Liquid; for mass density: Vibrating tube method; for electrical conductivity: Conductivity Meter Jenco 3107; for viscosity: Cone and plate viscometry

CC1COC(=O)O1 (centres undefined) [4-methyl-1,3-dioxolan-2-one] + CCCC[n+]1ccn(C)c1.O=S(=O)([N-]S(=O)(=O)C(F)(F)F)C(F)(F)F
Details | electrical conductivity [S/m] | mass density [kg/m3] | viscosity [mPa·s]
308.15 K, x2 = 0.7989 | – | 1410.26 ± 0.59 | –
308.15 K, x2 = 0.898 | – | 1418.04 ± 0.59 | –
313.15 K, x2 = 0 | – | – | 2.05 ± 0.21
313.15 K, x2 = 0.0146 | – | 1194.33 ± 0.42 | –
313.15 K, x2 = 0.0296 | – | 1205.22 ± 0.43 | –
313.15 K, x2 = 0.0453 | – | 1215.97 ± 0.43 | –
313.15 K, x2 = 0.0502 | 1.14 ± 0.034 | – | –
313.15 K, x2 = 0.0616 | – | 1226.46 ± 0.44 | –
313.15 K, x2 = 0.0732 | – | 1233.52 ± 0.44 | –
313.15 K, x2 = 0.0997 | – | 1248.42 ± 0.45 | –
313.15 K, x2 = 0.1 | – | – | 3.21 ± 0.32
313.15 K, x2 = 0.1004 | 1.44 ± 0.043 | – | –
313.15 K, x2 = 0.2001 | 1.66 ± 0.05 | – | –
313.15 K, x2 = 0.2002 | – | – | 4.59 ± 0.46
313.15 K, x2 = 0.2004 | – | 1293.64 ± 0.49 | –
313.15 K, x2 = 0.3002 | 1.52 ± 0.046 | – | –
313.15 K, x2 = 0.3007 | – | – | 6.34 ± 0.64
313.15 K, x2 = 0.3081 | – | 1328.25 ± 0.51 | –
313.15 K, x2 = 0.3998 | – | – | 8.29 ± 0.83
313.15 K, x2 = 0.4004 | – | 1350.46 ± 0.53 | –
313.15 K, x2 = 0.4005 | 1.4 ± 0.042 | – | –
313.15 K, x2 = 0.5004 | – | – | 10.77 ± 1.1
313.15 K, x2 = 0.5007 | 1.25 ± 0.038 | – | –
313.15 K, x2 = 0.5021 | – | 1369.47 ± 0.55 | –
313.15 K, x2 = 0.5839 | – | 1381.78 ± 0.56 | –
313.15 K, x2 = 0.6002 | – | – | 13.57 ± 1.4
313.15 K, x2 = 0.6003 | 1.11 ± 0.033 | – | –
313.15 K, x2 = 0.6902 | – | 1394.71 ± 0.57 | –
313.15 K, x2 = 0.6979 | – | – | 16.55 ± 1.7
313.15 K, x2 = 0.6989 | 0.971 ± 0.029 | – | –
313.15 K, x2 = 0.7989 | – | 1405.28 ± 0.58 | –
313.15 K, x2 = 0.8001 | 0.85 ± 0.026 | – | –
313.15 K, x2 = 0.8015 | – | – | 20.47 ± 2.1
313.15 K, x2 = 0.8959 | 0.73 ± 0.022 | – | 23.63 ± 2.4
313.15 K, x2 = 0.898 | – | 1413.08 ± 0.59 | –
318.15 K, x2 = 0 | – | – | 1.9 ± 0.19
318.15 K, x2 = 0.0146 | – | 1188.81 ± 0.42 | –
318.15 K, x2 = 0.0296 | – | 1199.72 ± 0.42 | –
318.15 K, x2 = 0.0453 | – | 1210.48 ± 0.43 | –
318.15 K, x2 = 0.0502 | 1.23 ± 0.037 | – | –
318.15 K, x2 = 0.0616 | – | 1220.94 ± 0.44 | –
318.15 K, x2 = 0.0732 | – | 1228.04 ± 0.44 | –
318.15 K, x2 = 0.0997 | – | 1243.05 ± 0.45 | –
318.15 K, x2 = 0.1 | – | – | 2.89 ± 0.29
318.15 K, x2 = 0.1004 | 1.59 ± 0.048 | – | –
318.15 K, x2 = 0.2001 | 1.81 ± 0.054 | – | –
318.15 K, x2 = 0.2002 | – | – | 4.17 ± 0.42
318.15 K, x2 = 0.2004 | – | 1288.34 ± 0.48 | –
318.15 K, x2 = 0.3002 | 1.68 ± 0.05 | – | –
318.15 K, x2 = 0.3007 | – | – | 5.68 ± 0.57
318.15 K, x2 = 0.3081 | – | 1323.02 ± 0.51 | –
318.15 K, x2 = 0.3998 | – | – | 7.31 ± 0.73
318.15 K, x2 = 0.4004 | – | 1345.37 ± 0.53 | –
318.15 K, x2 = 0.4005 | 1.57 ± 0.047 | – | –
318.15 K, x2 = 0.5004 | – | – | 9.37 ± 0.94
318.15 K, x2 = 0.5007 | 1.41 ± 0.042 | – | –
318.15 K, x2 = 0.5021 | – | 1364.43 ± 0.55 | –
318.15 K, x2 = 0.5839 | – | 1376.72 ± 0.56 | –
318.15 K, x2 = 0.6002 | – | – | 11.75 ± 1.2
318.15 K, x2 = 0.6003 | 1.26 ± 0.038 | – | –
318.15 K, x2 = 0.6902 | – | 1389.72 ± 0.57 | –
318.15 K, x2 = 0.6979 | – | – | 14.29 ± 1.4
318.15 K, x2 = 0.6989 | 1.11 ± 0.033 | – | –
318.15 K, x2 = 0.7989 | – | 1400.29 ± 0.58 | –
318.15 K, x2 = 0.8001 | 0.961 ± 0.029 | – | –
318.15 K, x2 = 0.8015 | – | – | 17.5 ± 1.8
318.15 K, x2 = 0.8959 | 0.828 ± 0.025 | – | 20.04 ± 2
318.15 K, x2 = 0.898 | – | 1408.1 ± 0.59 | –
323.15 K, x2 = 0 | – | – | 1.78 ± 0.18
323.15 K, x2 = 0.0146 | – | 1183.28 ± 0.41 | –
323.15 K, x2 = 0.0296 | – | 1194.23 ± 0.42 | –
323.15 K, x2 = 0.0453 | – | 1204.99 ± 0.43 | –
323.15 K, x2 = 0.0502 | 1.32 ± 0.04 | – | –
323.15 K, x2 = 0.0616 | – | 1215.52 ± 0.43 | –
323.15 K, x2 = 0.0732 | – | 1222.56 ± 0.43 | –
323.15 K, x2 = 0.0997 | – | 1237.51 ± 0.44 | –
323.15 K, x2 = 0.1 | – | – | 2.68 ± 0.27
323.15 K, x2 = 0.1004 | 1.74 ± 0.052 | – | –
323.15 K, x2 = 0.2001 | 1.97 ± 0.059 | – | –
323.15 K, x2 = 0.2002 | – | – | 3.81 ± 0.38
323.15 K, x2 = 0.2004 | – | 1283 ± 0.49 | –
323.15 K, x2 = 0.3002 | 1.85 ± 0.056 | – | –
323.15 K, x2 = 0.3007 | – | – | 5.14 ± 0.52
323.15 K, x2 = 0.3081 | – | 1317.8 ± 0.51 | –
323.15 K, x2 = 0.3998 | – | – | 6.58 ± 0.66
323.15 K, x2 = 0.4004 | – | 1340.2 ± 0.53 | –
323.15 K, x2 = 0.4005 | 1.74 ± 0.052 | – | –
323.15 K, x2 = 0.5004 | – | – | 8.34 ± 0.84
323.15 K, x2 = 0.5007 | 1.57 ± 0.047 | – | –
323.15 K, x2 = 0.5021 | – | 1359.32 ± 0.54 | –
323.15 K, x2 = 0.5839 | – | 1371.65 ± 0.55 | –
323.15 K, x2 = 0.6002 | – | – | 10.31 ± 1
323.15 K, x2 = 0.6003 | 1.41 ± 0.042 | – | –
323.15 K, x2 = 0.6902 | – | 1384.62 ± 0.57 | –
323.15 K, x2 = 0.6979 | – | – | 12.41 ± 1.2
323.15 K, x2 = 0.6989 | 1.25 ± 0.038 | – | –
323.15 K, x2 = 0.7989 | – | 1395.23 ± 0.57 | –
323.15 K, x2 = 0.8001 | 1.1 ± 0.033 | – | –
323.15 K, x2 = 0.8015 | – | – | 15.15 ± 1.5
323.15 K, x2 = 0.8959 | 0.93 ± 0.028 | – | 17.34 ± 1.7
323.15 K, x2 = 0.898 | – | 1403.08 ± 0.58 | –
328.15 K, x2 = 0 | – | – | 1.63 ± 0.16
328.15 K, x2 = 0.0502 | 1.41 ± 0.042 | – | –
328.15 K, x2 = 0.1 | – | – | 2.47 ± 0.25
328.15 K, x2 = 0.1004 | 1.89 ± 0.057 | – | –
328.15 K, x2 = 0.2001 | 2.12 ± 0.064 | – | –
328.15 K, x2 = 0.2002 | – | – | 3.45 ± 0.35
328.15 K, x2 = 0.3002 | 2.06 ± 0.062 | – | –
328.15 K, x2 = 0.3007 | – | – | 4.68 ± 0.47
328.15 K, x2 = 0.3998 | – | – | 5.94 ± 0.6
328.15 K, x2 = 0.4005 | 1.92 ± 0.057 | – | –
328.15 K, x2 = 0.5004 | – | – | 7.41 ± 0.74
328.15 K, x2 = 0.5007 | 1.74 ± 0.052 | – | –
328.15 K, x2 = 0.6002 | – | – | 9.19 ± 0.92
328.15 K, x2 = 0.6003 | 1.57 ± 0.047 | – | –
328.15 K, x2 = 0.6979 | – | – | 11 ± 1.1
328.15 K, x2 = 0.6989 | 1.4 ± 0.042 | – | –
328.15 K, x2 = 0.8001 | 1.25 ± 0.037 | – | –
328.15 K, x2 = 0.8015 | – | – | 13.3 ± 1.3
328.15 K, x2 = 0.8959 | 1.07 ± 0.032 | – | 15.12 ± 1.5
333.15 K, x2 = 0 | – | – | 1.54 ± 0.15
333.15 K, x2 = 0.1 | – | – | 2.31 ± 0.23
333.15 K, x2 = 0.2002 | – | – | 3.22 ± 0.32
333.15 K, x2 = 0.3007 | – | – | 4.26 ± 0.43
333.15 K, x2 = 0.3998 | – | – | 5.37 ± 0.54
333.15 K, x2 = 0.5004 | – | – | 6.66 ± 0.67
333.15 K, x2 = 0.6002 | – | – | 8.17 ± 0.82
333.15 K, x2 = 0.6979 | – | – | 9.7 ± 0.97
333.15 K, x2 = 0.8015 | – | – | 11.7 ± 1.2
333.15 K, x2 = 0.8959 | – | – | 13.26 ± 1.3
